The assay deals with myeloperoxidase (MPO) (Homo sapiens, UniProt P05164). The experiment in a line: microscale thermophoresis. It counts as binding. For orientation: Microscale thermophoresis detects binding through changes in fluorescence in a small temperature gradient.
Sequence of myeloperoxidase (MPO) (P05164 165-273): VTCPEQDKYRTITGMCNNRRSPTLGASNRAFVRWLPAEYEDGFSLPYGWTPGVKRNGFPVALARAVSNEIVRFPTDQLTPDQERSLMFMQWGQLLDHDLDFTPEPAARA
Sequence of myeloperoxidase (MPO) (P05164 279-745): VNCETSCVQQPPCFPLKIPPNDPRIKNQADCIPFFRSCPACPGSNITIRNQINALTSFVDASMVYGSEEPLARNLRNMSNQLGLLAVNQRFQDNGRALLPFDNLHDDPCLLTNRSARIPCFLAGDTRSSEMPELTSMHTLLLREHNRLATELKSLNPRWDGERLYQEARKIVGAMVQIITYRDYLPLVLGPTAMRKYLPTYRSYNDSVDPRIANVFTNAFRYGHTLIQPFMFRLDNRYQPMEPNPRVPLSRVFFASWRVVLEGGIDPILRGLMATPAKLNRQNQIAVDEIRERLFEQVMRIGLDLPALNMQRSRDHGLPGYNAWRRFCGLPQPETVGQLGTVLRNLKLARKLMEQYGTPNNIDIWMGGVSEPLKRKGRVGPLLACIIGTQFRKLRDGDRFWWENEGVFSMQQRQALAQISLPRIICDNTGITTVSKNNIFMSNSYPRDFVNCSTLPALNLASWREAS

In the case of `c1ccc2[nH]ccc2c1` [indole, 1H-indole], the Kd (in general, the free concentration of one partner at which half of the binding sites on the other are occupied at equilibrium, for simple one-to-one binding) was 272 ± 77.4 µM.

The values are drawn from PMC8078834 (FASEB journal : official publication of the Federation of …, 2021).
